Article PMC10779102, “Structural Studies of Klebsiella pneumoniae Fosfomycin-Resistance Protein and Its Application for the Development of an Optical Biosensor for Fosfomycin Determination” (International Journal of Molecular Sciences, 2023)

Key:
[1] = target: T1, FosAPA (Pseudomonas aeruginosa, UniProt Q9I4K6); assay: DTNB ([…] nm) assay of GSH conjugation, time course; assay type: biochemical; settings: 10 mM Fos, 15 mM GSH, 0.1 M sodium phosphate pH 8, 100 mM KCl, 0.05 mM MnCl2, 25 °C
T1 construct: gene fosA
T1 sequence (Q9I4K6 whole entry): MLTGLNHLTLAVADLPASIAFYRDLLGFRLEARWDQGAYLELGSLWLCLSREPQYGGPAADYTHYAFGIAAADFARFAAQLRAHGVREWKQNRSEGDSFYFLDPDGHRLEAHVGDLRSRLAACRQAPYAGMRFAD

[2] = target: T2, FosAKP (Klebsiella pneumoniae, UniProt A0A086IRG1); assay: DTNB ([…] nm) activity assay; crystal structure of complex ([…] Å); assay type: biochemical; settings: read-out: % inhibition at 5 mM
T2 construct: gene fosA
T2 sequence (A0A086IRG1 entry or part of it): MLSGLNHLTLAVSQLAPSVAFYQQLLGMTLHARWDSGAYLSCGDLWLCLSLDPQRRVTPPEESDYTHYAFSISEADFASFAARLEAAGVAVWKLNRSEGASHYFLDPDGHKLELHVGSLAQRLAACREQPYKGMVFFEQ

[3] = tested on: C[C@@H]1O[C@@H]1P(=O)(O)O; assay: purified protein; assay type: biochemical, Klebsiella pneumoniae; settings: free enzyme, 15 mM GSH, 0.1 M sodium phosphate pH 8, 100 mM KCl, 0.05 mM MnCl2, 25 °C, also bound in active site of crystal structure

C[C@@H]1O[C@@H]1P(=O)(O)O [Fosfomycin, (1R,2S)-epoxypropylphosphonic acid]
DTNB (412 nm) assay of GSH conjugation, time course [1]: time course of Fos conjugation with GSH, catalyzed by FosAPA and FosAKP

O=C(O)C(O)C(O)C(=O)O (stereo not drawn) [Tar]
inhibition at 5000 µM [2]: 20.7%

FosAKP (Klebsiella pneumoniae)
Km [3]: 2.2 ± 0.3 mM
